The structures appear in SMILES notation.

One assay concerns the target cpAC17-4 RNA aptamer. Nature of the assay: Affinity measurement by SPR, cpAC17-4 immobilized chip. It is filed as binding. Particulars: cpAC17-4 with 3′ poly(A) tail. The procedure:
Affinity measurements of the aptamers with the ligands by SPR were performed as described by Chang et al.^53 with some modifications. Experiments were performed on Biacore T200 (Cytiva) at 25° C. For immobilization of the capture DNA (5′-/5AmMC6/[…]-3′ (SEQ ID NO: 32),/5AmMC6/: 5′ amino modifier C6, IDT), 1×HBS-N (10 mM HEPES, pH 7.4, 150 mM NaCl) was used as the running buffer. CM5 chip surface was washed by two injections of NaOH/NaCl solution (25 mM NaOH, 1 M NaCl) at 20 μl min^−1 for 30 s. […]
The dsDNA templates for in vitro transcription of the aptamers were prepared by primer extension of two oligo DNAs using Q5 High-Fidelity DNA Polymerase (NEB). […] RNA concentrations were determined by absorbance at 260 nm according to OligoCalc^54. […] An aptamer ligand was injected at 30 μl min^−1 for 120 s to monitor association, and then the dissociation kinetics was monitored for 180 s in the SPR running buffer. […] The raw data were analysed by Biacore T200 Evaluation Software 1.0 using 1:1 Langmuir interaction model. […] Dissociation constant (KD) was determined from the ratio of the association and the dissociation rate constants (KD=koff/kon) or by equilibrium analysis. […]

The target in a further assay is AC17-4 RNA aptamer. Nature of the assay: Affinity measurement by ITC, AC17-4. Format: binding. The settings on record: 37 °C. As to the method: ITC experiments were carried out as described previously^26 with some modifications. Template DNA for in vitro transcription was prepared by primer extension using Q5 High-Fidelity DNA Polymerase. AC17-4 RNA aptamer (5′-[…]-3′ (SEQ ID NO: 50)) was prepared using HiScribe T7 High Yield RNA Synthesis Kit (NEB) according to the manufacturer's instructions. The transcription product (100 μl) was treated with 2 U TURBO DNase at 37° C. for 30 min. The RNA was precipitated with ammonium acetate and ethanol and dissolved in water. The solution was further extracted with phenol-chloroform and ethanol precipitated. The RNA was purified by denaturing polyacrylamide gel electrophoresis (PAGE) and the main band was extracted from the gel with TE buffer (10 mM Tris-HCl, pH 7.0, 0.1 mM EDTA). […] RNA concentration was determined by absorbance at 260 nm according to OligoCalc. […]
Titration was performed at 37° C. using MicroCal PEAQ-ITC (Malvern). […] Raw data were analysed by MicroCal PEAQ-ITC analysis software ver. […]
Conventional SELEX requires immobilization of the target molecule on solid phase on which an RNA pool containing randomized sequences are applied. […] The sequences enriched during the SELEX experiment were analyzed by high-throughput (Illumina) sequencing. […]
A general note: In ITC the heat of successive injections is recorded.

Turning to `Fc1ccc(Nc2nc(NCc3ncccn3)nc(Nc3ccccc3)n2)cc1` [ASP2905, reference compound], the Kd at cpAC17-4 RNA aptamer was determined as 0.03 µM; at AC17-4 RNA aptamer, 0.048 µM.

The Kd is a measure of binding affinity in units of concentration.

Source of the values: US20260327628A1, “AN RNA APTAMER THAT BINDS TO ASP7967 OR AN ANALOGUE THEREOF” (priority 2022, published 2026).
